Literature values in the PKSmart pharmacokinetics tables (Seal et al. 2025).

Assay: Lombardo, Berellini, Obach 2018, Drug Metab Dispos 46:1466, doi 10.1124/dmd.118.082966
Conditions: human; for MRT / Vd / clearance / half-life: in vivo, iv; for fraction unbound: plasma

Compound | MRT [h] | Vd [L/kg] | clearance [mL/min/kg] | half-life [h] | fraction unbound
CCN(CC)CCNC(=O)c1cc(S(C)(=O)=O)ccc1OC | 3.8 | 1.1 | 4.7 | 3.2 | –
CCOC(Cc1ccc(OCCc2ccc(OS(C)(=O)=O)cc2)cc1)C(=O)O (stereo unspecified) | 56 | 0.13 | 0.039 | 45 | –
O=C(/C=C/c1ccccc1)NCCO | 1.93 | 0.11 | 0.99 | 1.35 | –
OCCN1CCN(CC/C=C2/c3ccccc3Sc3ccc(C(F)(F)F)cc32)CC1 | – | – | 4.14 | 34.2 | –
NC[C@H]1O[C@H](O[C@H]2[C@H](O)[C@@H](O[C@H]3O[C@H](CO)[C@@H](O)[C@H](N)[C@H]3O)[C@H](N)C[C@@H]2N)[C@H](O)[C@@H](O)[C@@H]1O | 3.1 | 0.26 | 1.4 | 2.1 | –
COCCn1c2c([n+](Cc3cnccn3)c1C)C(=O)c1ccccc1C2=O | 34.5 | 23.7 | 11.3 | 24.8 | –
CC[C@H]1OC(=O)C(C)[C@@H](O[C@H]2C[C@@](C)(OC)[C@@H](O)[C@H](C)O2)[C@H](C)[C@@H](O[C@@H]2O[C@H](C)C[C@H](N(C)C)[C@H]2O)[C@](C)(O)C[C@@H](C)CN(C)[C@H](C)[C@@H](O)[C@]1(C)O (stereo partly specified) | 57 | 33 | 10 | 69 | –
CN(C)CCCOc1nn(Cc2ccccc2)c2ccccc12 | 11.4 | 1.53 | 2.28 | 8.1 | 0.8
C=CCN1CC[C@]23c4c5ccc(O)c4OC2C(=O)CC[C@@]3(O)[C@H]1C5 (stereo partly specified) | 1.2 | 1.7 | – | 1.1 | 0.54
COC(=O)C(c1ccccc1Cl)N1CCc2sccc2C1 (stereo unspecified) | 1.42 | 2.01 | 23.6 | 5.06 | 0.02
CC(C)(C)NCC(O)COc1cccc2c1CC(O)C(O)C2 (stereo unspecified) | 11 | 1.9 | 2.9 | 9.2 | 0.14
NC(O)=NO | 4.8 | 0.52 | 1.5 | 3.4 | –
CC[C@]1(O)C[C@H]2CN(CCc3c([nH]c4ccccc34)[C@@](C(=O)OC)(c3cc4c(cc3OC)N(C)[C@H]3[C@@](O)(C(N)=O)[C@H](O)[C@]5(CC)C=CCN6CC[C@]43[C@@H]65)C2)C1 | 38 | 5 | 2.2 | 35 | –
CC(=O)Nc1c(I)c(NC(C)=O)c(I)c(C(=O)O)c1I | 2.6 | – | 1.7 | – | 1
CCCCc1nc(Cl)c(CO)n1Cc1ccc(-c2ccccc2-c2nnn[nH]2)cc1 | 0.75 | 0.37 | 8.2 | 1.8 | –
Oc1cc2c(cc1O)[C@H](Cc1cccc3ccccc13)NCC2 | 0.12 | 1.09 | 156 | 1.58 | –
CCCc1c2oc(C(=O)O)cc(=O)c2cc2c(=O)cc(C(=O)O)n(CC)c12 | 0.7 | 0.43 | 10.2 | 0.9 | 0.11
CN[C@@H]1[C@H](O)[C@H](NC)[C@H]2O[C@@]3(O)C(=O)C[C@@H](C)O[C@H]3O[C@@H]2[C@H]1O | 2.2 | 0.13 | 0.99 | 1.8 | –

Compound | MRT [h] | Vd [L/kg] | clearance [mL/min/kg] | half-life [h] | fraction unbound
C=C1CC[C@@H]2[C@](C)(COC(=O)CCC(=O)O)[C@H](OC(=O)CCC(=O)O)CC[C@@]2(C)[C@@H]1/C=C/C1=CCOC1=O | 1 | 0.13 | 2 | 1.9 | –
CCOc1ccccc1O[C@H](c1ccccc1)[C@H]1CNCCO1 | 13 | 0.65 | 0.82 | 10 | –
C/C=C/c1cc(OC)c(OC)cc1OC | 1.9 | 1 | 8.8 | 3.7 | –
CO[C@@]1(NC(=O)C(C(=O)O)c2ccsc2)C(=O)N2C(C(=O)O)C(C)(C)S[C@@H]21 (stereo partly specified) | 5.2 | 0.11 | 0.34 | 4.1 | 0.21
O[C@@H](CNC[C@H](O)[C@H]1CCc2cc(F)ccc2O1)[C@@H]1CCc2cc(F)ccc2O1 | 13 | 11 | 14 | 10 | 0.02
C#C[C@]1(O)C=C[C@H]2[C@@H]3CC=C4CC(=O)CCC4[C@H]3CC[C@@]21CC (stereo partly specified) | 9.6 | 0.46 | 0.8 | 10 | 0.023
CC(=O)C[C@H](c1ccc([N+](=O)[O-])cc1)c1c(O)c2ccccc2oc1=O | 3.12 | 0.24 | 1.28 | 7.22 | 0.02
CS(=O)(=O)c1ccc(C2=C(c3ccccc3)C(=O)OC2)cc1 | 10.8 | 1.3 | 2 | 7.5 | 0.13
Cc1ccccc1N1C(=O)c2cc(S(N)(=O)=O)c(Cl)cc2NC1C (stereo unspecified) | 19 | 1.6 | 1.4 | 20 | –
CCCCC1=NC2(CCCC2)C(=O)N1Cc1ccc(-c2ccccc2-c2nnn[nH]2)cc1 | 6.8 | 0.94 | 2.3 | 14 | 0.1
CCOC(=O)C(CCc1ccccc1)NC(C)C(=O)N1C(C(=O)O)C[C@H]2CCCC[C@H]21 (stereo partly specified) | – | – | – | – | 0.17
C[N+](C)(O)CCCN1c2ccccc2CCc2ccccc21 | 2.6 | 1.9 | 12 | 1.8 | –
O=c1[nH]cnc2c([C@@H]3N[C@H](CO)[C@@H](O)[C@H]3O)c[nH]c12 | – | – | 1.56 | 11.6 | –
CC(C(=O)O)c1ccc(C(=O)c2cccs2)cc1 (stereo unspecified) | 0.88 | 0.04 | 0.76 | 2.1 | –
Nc1nc(=O)c2c([nH]1)NC[C@H](CNc1ccc(C(=O)NC(CCC(=O)O)C(=O)O)cc1)N2C=O (stereo partly specified) | 1.1 | 0.27 | 4.1 | 1.1 | –
O=C1c2ccc3ccccc3c2C(=O)N1CCNCCCNCCN1C(=O)c2ccc3ccccc3c2C1=O | 35.2 | 12 | 5.7 | 52.6 | –
OCCN(CCO)c1nc(N2CCCCC2)c2nc(N(CCO)CCO)nc(N3CCCCC3)c2n1 | 6.8 | – | 2 | 13 | –
CN(C)[C@@H]1C(O)=C(C(N)=O)C(=O)[C@@]2(O)C(O)=C3C(=O)c4c(O)cccc4[C@@](C)(O)[C@H]3[C@H](O)[C@@H]12 | 12 | 1.7 | 2 | 10 | 0.9
